In general, IC50 refers to the concentration at which inhibition is half-maximal. By EC50 is commonly meant the concentration needed to bring the measured effect to its halfway point.

The structures appear in SMILES notation. Entries after “also recorded” stand apart in the source; their conditions may differ. Where two headings read alike, the source gives them in different places.

Data set [1] deals with human lung cancer cells A549. Briefly: MTT cytotoxic activity assay, A549. Type of data set: cell-based. Here is the method:
(§1) The 3-(4,5-dimethyl-2-thiazolyl)-2,5-diphenyl-2-h-tetrazole ammonium bromide (MTT) experiment was applied to test the cytotoxic activity for 1–6 against human lung cancer cells A549 and liver cancer cells Hep G2. Cells in RPMI-1640 medium (10% FBS, 0.4% penicillin–streptomycin solution) were digested with trypsin and diluted to the concentration of 1 × 10^4 cells/mL. The cell suspensions were diluted and added into a 96-well microtiter plate with 200 µL per well. The plate was then incubated in a CO2 incubator at 37 °C. Compounds 1–6 were added to the plate wells after 24 h and incubated for 72 h. Adriamycin (ADM) was used as the positive control, and DMSO as the blank control. The MTT solution was added after 72 h incubation, followed by incubation for 4 h. The cells were successively disrupted with 200 µL of DMSO for 10 min after the supernatant liquid was removed. The absorption was measured at 570 nm.

The test system of data set [2] is LPS-induced NO production in macrophage RAW264.7 cells. Briefly: Inhibition of LPS-induced NO production (Griess reaction). The format is cell-based. Conditions: Mus musculus; for IC50: macrophage RAW264.7 cells, given as IC50, read-out: IC50 inhibition of LPS-stimulated NO production. Here is the method:
(§2) RAW264.7 cells were cultured in DMEM with 10% fetal bovine serum (FBS) and 1% penicillin-streptomycin at 37 °C in 5% CO2. The MTT assay was used to evaluate cell viability. RAW264.7 cells were seeded on 96-well plates at 5 × 10^5 cells/well [26]. After incubation with compounds 1–6 at five concentrations ([…]) for 24 h, cells were treated with MTT (5 mg/mL) at 37 °C for 4 h. Then, the supernatant was removed and the […] was crystalised with DMSO. The absorbance was measured at 570 nm. The Griess reaction was applied to measure the accumulation of NO2^− in culture supernatant. RAW264.7 cells were treated with the compounds for 1 h then with the presence of LPS (1 μg/mL) for 24 h. The culture supernatant fluids (50 µL) and Griess reagent (50 µL) were mixed and incubated at room temperature. The absorbance was read at 570 nm after 15 min.
On the technique in general: Griess reagent forms a coloured azo dye with nitrite.

Data set [3] relates to liver cancer cells Hep G2. Briefly: MTT cytotoxic activity assay, Hep G2. The format is cell-based. Conditions: Homo sapiens. Here is the method:
as §1
(Tetrazolium dyes change colour on reduction, which living cells bring about.)

The subject of the next data set is RAW264.7 cells. Briefly: MTT cell viability of RAW264.7 cells (non-toxic concentrations). The format is cell-based. As to conditions: 24 h. How it is done: as §2
For data set [4], the system named is PI3K-Akt-mTOR signalling pathway. Briefly: Western blot analysis of PI3K-Akt-mTOR signalling pathway in A549 cells. Type of data set: cell-based, human. Conditions: 0.2 and 0.4 μM, 24 h. Here is the method:
Considering the significant cytotoxicities of penicillixanthone A (4), we evaluated its plausible molecular mechanism in A549 tumour cells using western blot analysis in Figure 5. Compound 4 (0.2 and 0.4 µM) was firstly pretreated for 24 h to test the PI3K expression.
Figure 5 The protein expression of the PI3K-Akt-mTOR signalling pathway of 4 was evaluated by western blot analysis. A549 cells were treated with 4 (0.2 and 0.4 μM) for 24 h, and the expression levels of PI3K, Akt and mTOR were tested by the responsible antibodies. […] Data are represented as the mean ± SD, n = 3, *** p < 0.01 vs. Control.
(In western blotting, separated proteins are transferred to a membrane and probed.)

Where [5] appears, read: A549 cells, MTT, 72 h incubation, read-out: IC50 cytotoxicity A549.
Where [6] appears, read: LPS (1 μg/mL)-induced NO production in RAW264.7 cells, 24 h, Griess reaction, read-out: EC50.
The mark [7] stands for this setting: HepG2 cells, MTT, 72 h incubation, read-out: IC50 cytotoxicity HepG2.

For the molecule `CC(C)C(=O)c1cc2c([nH]1)C(=O)c1cc([C@H](O)C(C)C)[nH]c1C2=O` [Compound 1, talaroterreusinone A], the half-inhibitory concentration (IC50) came to 133 µM in data set [1] (setting [5]), 20.3 µM in data set [2] and 111 µM in data set [3] (setting [7]). Also, the 50% effective concentration (EC50) in data set [2] (setting [6]) stood at 20.3 µM. For the same molecule, the “Non-Toxic Concentrations” value in the data set on RAW264.7 cells is 3.04 to 304.87 µM.

Turning to `CO[C@@H](c1cc2c([nH]1)C(=O)c1cc([C@H](O)C(C)C)[nH]c1C2=O)C(C)C` [Compound 2, Talaroterreusinone B], the IC50 in data set [1] (setting [5]) amounted to 98.8 µM; in data set [2], 30.7 µM; in data set [3] (setting [7]) it was 84.7 µM. Also, the EC50 in data set [2] (setting [6]) worked out at 30.7 µM. Moreover, in the data set with RAW264.7 cells, the “Non-Toxic Concentrations” value was 2.90 to 190.69 µM.

Regarding `CO[C@H](c1cc2c([nH]1)C(=O)c1cc([C@H](OC)C(C)C)[nH]c1C2=O)C(C)C` [Compound 3, terreusinone D], the IC50 is 62.7 µM in data set [1] (setting [5]), 20.6 µM in data set [2] and 57.4 µM in data set [3] (setting [7]). Besides, in data set [2] (setting [6]), the EC50 was 20.6 µM. The “Non-Toxic Concentrations” value in the data set on RAW264.7 cells lay in the range of 2.79 to 279.32 µM.

As to `COC(=O)[C@]12Oc3ccc(-c4ccc(O)c5c4O[C@@]4(C(=O)OC)C(=C(O)C[C@@H](C)[C@@H]4O)C5=O)c(O)c3C(=O)C1=C(O)C[C@@H](C)[C@@H]2O` [Compound 4, penicillixanthone A], the IC50 in data set [1] (A549 cell line, read-out: IC50 cytotoxic activity A549) came to 0.212 µM; in data set [1] (setting [5]) it was 0.117 µM; in data set [3] (HepG2, Hep G2 cell line, read-out: IC50 cytotoxic activity Hep G2) it was 0.117 µM; in data set [3] (setting [7]), 0.212 µM. The molecule further showed a concentration giving a half-maximal response (EC50) in data set [2] (RAW264.7, 24 h) of 1 µM. Also, in data set [4], the phospho-PI3K expression result is reported as “decrease the phospho-PI3K expression”. The phospho-mTOR/Akt expression result in data set [4] is “significantly suppressed”. The “expression of PI3K, Akt and mTOR (PI3K-Akt-mTOR signalling pathway)” value in data set [4] (p < 0.01 vs. Control) was “inhibiting the PI3K-Akt-mTOR signalling pathway; also recorded: inhibited the expression of PI3K, Akt and mTOR”.

Take `CC(O)Cc1cc(O)c2c(c1)C(=O)c1cc(O)cc(O)c1C2=O` (centres unmarked) [Compound 5, isorhodoptilometrin]: the IC50 in data set [1] (setting [5]) and in data set [3] (setting [7]) was over 150 µM each time. In addition, the half-maximal effective concentration (EC50) in data set [2] (setting [6]) turned out to be 121 µM. In addition, in the data set on RAW264.7 cells, the “Non-Toxic Concentrations” value fell in the range of 3.18 to 318.47 µM.

Regarding `C/C1=C\Cc2c(cc(O)c3c2C[C@@H](C)OC3=O)OC(C)(C)[C@@H](O)CC/C(C)=C/CC1` [Compound 6, chrysomutanin], the half-inhibitory concentration (IC50) in data set [1] (setting [5]) was 42.5 µM; in data set [3] (setting [7]) it was 43.9 µM. Further, the EC50 in data set [2] (setting [6]) is 142 µM. Further, the “Non-Toxic Concentrations” value with RAW264.7 cells was 2.41 to 241.54 µM.

As for `COc1cccc2c1C(=O)c1c(O)c3c(c(O)c1C2=O)C[C@@](O)(C(=O)CO)C[C@@H]3O[C@H]1C[C@H](N)[C@H](O)[C@H](C)O1` [adriamycin, Adriamycin, reference compound], the values for the IC50 in data set [1] (setting [5]) and in data set [3] (setting [7]) were 3.5 µM and 1.2 µM, respectively.

On to `Oc1ccc(/C=C/c2cc(O)cc(O)c2)cc1` [resveratrol, reference compound], for which, in data set [2] (setting [6]), the EC50 came out at 1.6 µM. Besides, the “Non-Toxic Concentrations” value in the data set on RAW264.7 cells is 0.43 to 109.52 µM.

The record behind these values is publication PMC10708468, “New Dipyrroloquinones from a Plant-Derived Endophytic Fungus Talaromyces sp” (Molecules, 2023).
